Results on six compounds are retold here after US11339171B2, “MDM2 inhibitors” (Gan & Lee Pharmaceuticals, priority 2017, dated 2022).

One data set concerns the target T1, MDM2 (Homo sapiens, UniProt Q00987).
T1 construct: made in house
Put plainly: Inhibition test of MDM2-P53 (GST-MDM2, Biotin-P53, Anti-GST-Tb, SA-XL665). In kind it is binding. Particulars: for inhibitory effect on MDM2 compared with positive control compound HDM201: labels are Example numbers, the compounds with S-configuration are meant. The procedure:
Experimental purpose: To determine the inhibitory activities of the compounds of the present invention on MDM2.
The present experiment uses the following assay methods/instruments/reagents:
Buffer: 1×PBS+0.1% BSA+5 mM DTT; MDM2 Buffer: Buffer+1 mM AEBSF
GST-MDM2: The final concentration is 4 nM, and it is required to formulate a 20 nM (5×) solution. A mother liquor is diluted by 3500 folds, wherein the mother liquor is 10-fold diluted first, and then 350-fold diluted.
Anti-GST-Tb: The final concentration is 2×, and a mother liquor is diluted by 50 folds.
MIX: GST-MDM2, Biotin-P53, SA-XL665 and Anti-GST-Tb were mixed according to a ratio of 4:4:5:5.
Sample: Preparation of a sample (10 mM in DMSO) solution: a. 3 μL sample+7 μL DMSO+20 μL DMSO were formulated to give an initial concentration of 1 mM and mixed well; b. in plate 1, twelve 5-fold serial dilutions (sequentially prepared by adding 10 μL of the last sample to 40 μL DMSO) were prepared and mixed well, individually; c. plate 2 was taken, 45 μL of Buffer was added to each well, and 5 μL of dilution at each concentration was taken from plate 1 and added to the corresponding well in plate 2 (the concentration in well 1 was 100 μM), and mixed well.
1. 18 μL of MIX was added to a 384-well plate, and centrifugation was performed at 4500 rpm for 5 min.
2. 2 μL of sample was added correspondingly to each well, the resultant was centrifuged at 25° C. and 4500 rpm for 5 min, and shaked at 25° C. for 90 min on a shaker.
Readings were obtained from the Microplate reader, and data was processed by Graphpad Prism 6.0.

A short description of data set [1]: Pharmacokinetics in ICR mice after intravenous and intragastric administration. The conditions noted are these: for MRT last: read-out: MRT(0-t); for MRT inf: read-out: MRT(0-∞); for Tmax: read-out: Tmax; for Vd: read-out: Vz; for half-life: read-out: t1/2 (converted). Type of data set: in vivo. On the procedure:
Experimental Example 3 Determination of the Pharmacokinetics of the Mdm2 Inhibitors of the Present Invention in Mice
ICR mice were used as the test animals, and the concentrations of the drugs in plasma of mice at different time points after intravenous administration and intragastric administration of the representative compounds were measured by a LC/MS/MS method, so as to study the pharmacokinetic behavior of the compounds of the present invention in mice and evaluate the pharmacokinetic characteristics thereof.
Some compounds prepared in Examples 1-180 of the present invention.
The control drug HDM201 was prepared by the method disclosed in patent No. CN104203952A.
Healthy adult ICR mice, male, 6-9 weeks old, weighing 20-30 g, purchased from Shanghai Xipuer-Bikai Laboratory Animal Co., Ltd., Animal Production License No.: SCXK (HU) 2013-0016
3.2.3 Preparation of Test Drugs
Intragastric or intravenous administration: an appropriate amount of sample was weighed, dissolved in 5% DMSO+40% PEG400+55% (10% HP-β-CD in Saline) to prepare a 0.5 mg/ml solution for intragastric or intravenous administration.
3.2.4 Administration of Test Drugs
Intravenous administration: for each test compound, 3 male ICR mice were administered intravenously at a dose of 2 mg/kg and an administration volume of […] after fasting overnight.
Intragastric administration: for each test compound, 3 male ICR mice were administered intragastrically at a dose of 5 mg/kg and an administration volume of […] after fasting overnight.
3.3 Experimental Operation
The collected plasma was stored at −80° C. before analysis. The plasma sample was analyzed by LC-MS/MS, and the sample was pretreated by protein precipitation method. The linear range of sample analysis was 1 to 2000 ng/ml. The lowest quantification limit was 1 ng/mL. WinNonlin (Pharsight, USA) was used to calculate the following pharmacokinetic parameters: area under the curve AUC(0-t), area under the curve AUC(0-∞), half-life t1/2, retention time MRT(0-∞), blood drug concentration Cmax, time taken to reach the peak blood drug concentration Tmax, bioavailability F, apparent volume of distribution Vz, and clearance rate CL.

Setting [2] is: IV 2 mg/kg, ICR mice, individual animal, 2 mg/kg.
[3] abbreviates: PO 5 mg/kg, ICR mice, individual animal, 5 mg/kg.
The mark [4] stands for this setting: male, ICR, mouse, plasma, iv, 2 mg/kg, IV 2 mg/kg, ICR mice, Mean.
[5] abbreviates: male, ICR, mouse, plasma, iv, 2 mg/kg, IV 2 mg/kg, ICR mice, individual animal.
[6] abbreviates: male, ICR, mouse, plasma, po, 5 mg/kg, PO 5 mg/kg, ICR mice, Mean.
Setting [7] is: male, ICR, mouse, plasma, po, 5 mg/kg, PO 5 mg/kg, ICR mice, individual animal.

SMILES strings stand for the structures. Where “and” joins values, the source holds several entries; their conditions need not be identical. Equal entries are not always repeated. Where two headings read alike, the source gives them in different places.

T1 sequence (Q00987 whole entry): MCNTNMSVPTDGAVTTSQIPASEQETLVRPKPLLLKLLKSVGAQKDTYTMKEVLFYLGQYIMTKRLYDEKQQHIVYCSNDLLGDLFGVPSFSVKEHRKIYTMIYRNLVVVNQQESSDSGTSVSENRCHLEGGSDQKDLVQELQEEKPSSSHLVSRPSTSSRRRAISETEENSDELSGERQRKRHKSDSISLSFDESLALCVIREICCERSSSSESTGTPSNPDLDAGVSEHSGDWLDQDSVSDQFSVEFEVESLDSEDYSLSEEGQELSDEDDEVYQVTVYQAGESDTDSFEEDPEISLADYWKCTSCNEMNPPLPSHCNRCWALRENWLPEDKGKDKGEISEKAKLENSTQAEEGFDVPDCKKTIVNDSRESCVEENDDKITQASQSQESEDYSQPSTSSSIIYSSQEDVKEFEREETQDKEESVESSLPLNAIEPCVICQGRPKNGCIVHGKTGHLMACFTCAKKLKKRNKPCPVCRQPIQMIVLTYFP

Consider `COc1cc(N(C)C)ncc1-c1nc2c(n1C(C)C)C1(C(=O)Nc3cc(Cl)ccc31)N(c1cc(Cl)ccc1C)C2=O` (stereo not drawn) [Example 111, 6-chloro-5′-(5-chloro-2-methylphenyl)-2′-(6-(dimethylamino)-4-methoxypyridin-3-yl)-3′-isopropyl-3′H-spiro[dihydroindole-3,4′-pyrrolo[3,4-d]imidazole]-2,6′(5′H)-dione], for which the “inhibitory effect on MDM2 compared with positive control compound HDM201” value at MDM2 is reported as “better”.
A word on the IC50: it is the point on the concentration scale where inhibition reaches its midpoint. A higher IC50 goes with weaker potency in that assay. For the compound `COc1cc(OCCF)ncc1-c1nc2c(n1C(C)C)[C@]1(C(=O)Nc3cc(Cl)ccc31)N(c1cc(Cl)cnc1C)C2=O` [Example R-173, (R)-6-chloro-5′-(5-chloro-2-methylpyridin-3-yl)-2′-(6-(2-fluoroethoxy)-4-methoxypyridin-3-yl)-3′-isopropyl-3′H-spiro[dihydroindole-3,4′-pyrrolo[3,4-d]imidazole]-2,6′(5′H)-dione], the IC50 at MDM2 worked out at 528 nM.
`COc1cc(C2CC2)ccc1-c1nc2c(n1C(C)C)[C@]1(C(=O)Nc3cc(Cl)ccc31)N(c1cc(Cl)cnc1C)C2=O` [Example R-145, (R)-6-chloro-5′-(5-chloro-2-methylpyridin-3-yl)-2′-(4-cyclopropyl-2-methoxyphenyl)-3′-isopropyl-3′H-spiro[dihydroindole-3,4′-pyrrolo[3,4-d]imidazole]-2,6′(5′H)-dione] had an IC50 against MDM2 of 749 nM.
Take `COc1cc(C(N)=O)ccc1-c1nc2c(n1C(C)C)C1(C(=O)Nc3cc(Cl)ccc31)N(c1cc(Cl)ccc1C)C2=O` (stereo not drawn) [Example 77, 4-(6-chloro-5′-(5-chloro-2-methylphenyl)-3′-isopropyl-2,6′-dioxo-5′,6′-dihydro-3′H-spiro[dihydroindole-3,4′-pyrrolo[3,4-d]imidazole]-2′-yl)-3-methoxybenzamide]: the “inhibitory effect on MDM2 compared with positive control compound HDM201” value on MDM2 is “better”.
In turn, `COc1cc(C(=O)N(C)C)ccc1-c1nc2c(n1C(C)C)[C@]1(C(=O)Nc3cc(Cl)ccc31)N(c1cc(Cl)ccc1C)C2=O` [Example R-68, (R)-4-(6-chloro-5′-(5-chloro-2-methylphenyl)-3′-isopropyl-2,6′-dioxo-5′,6′-dihydro-3′H-spiro[dihydroindole-3,4′-pyrrolo[3,4-d]imidazole]-2′-yl)-3-methoxy-N,N-dimethylbenzamide] returned a half-inhibitory concentration (IC50) on MDM2 of 657 nM.
In general, Cmax refers to the peak of the concentration-time curve. As usually defined, the Vz is the apparent volume that relates the amount in the body to the concentration in plasma or blood. As usually defined, the AUC(0-inf) is the area under the concentration-time curve extrapolated to infinity. Read a low AUC(0-inf) as low exposure. Broadly, the clearance is the rate of elimination divided by the concentration. Read a high clearance as efficient removal. A word on the Tmax: it is the time from dosing to the highest level. Broadly, the bioavailability is the share of a dose that reaches the circulation, judged against a reference dose that is usually intravenous. Regarding `COc1ncc(-c2nc3c(n2C(C)C)[C@H](c2ccc(Cl)cc2)N(c2cc(Cl)cn(C)c2=O)C3=O)c(OC)n1` [HDM201, reference compound], in data set [1] (setting [2]), the “AUC(0-t)” value is 520.23 ng·h/mL and 622.13 ng·h/mL; the “AUC(0-∞)” value is 600.29 ng·h/mL and 713.62 ng·h/mL; the CL is 55.5285 mL/min/kg and 46.7105 mL/min/kg; the Cmax was 459.85 ng/mL and 585.03 ng/mL. Besides, in data set [1] (setting [2]), the “MRT(0-t)” value is 40.8 min and 39.6 min; the “MRT(0-∞)” value is 58.8 min and 57.6 min; the Vz was 3.23181 L/kg and 2.7173 L/kg; the t1/2 was 40.2 min. Besides, the “F*” value in data set [1] (PO 5 mg/kg vs IV 2 mg/kg, ICR mice) was determined as 78.76%. Besides, in data set [1] (setting [3]), the “AUC(0-t)” value was 797.19 ng·h/mL and 1522.78 ng·h/mL; the “AUC(0-∞)” value was 818.45 ng·h/mL and 1539.76 ng·h/mL; the Cmax is 584.08 ng/mL and 715.01 ng/mL; the “MRT(0-t)” value is 62.4 min and 109 min. For the same compound, in data set [1] (setting [3]), the “MRT(0-∞)” value was 69 min and 115 min; the t1/2 was 44.4 min and 74.4 min. In data set [1] (setting [4]), the AUC(0-inf) was 644 ng·h/mL, the clearance is 52 mL/min/kg, the MRT last turned out to be 38.4 min and the MRT inf was determined as 54 min. For the same compound, in data set [1] (setting [4]), the time of peak concentration (Tmax) turned out to be 4.98 min, the Vd came out at 2.8 L/kg and the half-life was 37.2 min. Besides, the AUC(0-t) in data set [1] (male, ICR, mouse, plasma, iv, 2 mg/kg, IV 2 mg/kg, ICR mice, Mean, read-out: AUC(0-t)) worked out at 572 ng·h/mL. For the same compound, the maximum concentration (Cmax) in data set [1] (male, ICR, mouse, plasma, iv, 2 mg/kg, IV 2 mg/kg, ICR mice, Mean, read-out: Cmax) came out at 550 ng/mL. In data set [1] (setting [5]), the AUC(0-inf) worked out at 619 ng·h/mL, the clearance was 53.8 mL/min/kg, the MRT last is 35.4 min and the MRT inf came out at 45 min. Besides, in data set [1] (setting [5]), the Tmax worked out at 4.8 min, the Vd was found to be 2.46 L/kg and the half-life is 31.8 min. Moreover, the AUC(0-t) in data set [1] (male, ICR, mouse, plasma, iv, 2 mg/kg, IV 2 mg/kg, ICR mice, individual animal, read-out: AUC(0-t)) is 574 ng·h/mL. Besides, the Cmax in data set [1] (male, ICR, mouse, plasma, iv, 2 mg/kg, IV 2 mg/kg, ICR mice, individual animal, read-out: Cmax) was 606 ng/mL. In data set [1] (setting [6]), the total exposure AUC(0-inf) is 1150 ng·h/mL, the MRT last was determined as 96 min, the MRT inf was determined as 103 min and the Tmax amounted to 30 min. In addition, the half-life in data set [1] (setting [6]) is 66.6 min. Moreover, in data set [1] (male, ICR, mouse, plasma, po, 5 mg/kg, PO 5 mg/kg, ICR mice, Mean, read-out: AUC(0-t)), the AUC(0-t) came out at 1130 ng·h/mL. Further, the Cmax in data set [1] (male, ICR, mouse, plasma, po, 5 mg/kg, PO 5 mg/kg, ICR mice, Mean, read-out: Cmax) stood at 569 ng/mL. Moreover, in data set [1] (setting [7]), the total exposure AUC(0-inf) is 1080 ng·h/mL, the MRT last stood at 116 min, the MRT inf came out at 125 min and the Tmax was 30 min. Also, the half-life in data set [1] (setting [7]) is 80.4 min. Further, in data set [1] (male, ICR, mouse, plasma, po, 5 mg/kg, PO 5 mg/kg, ICR mice, individual animal, read-out: AUC(0-t)), the AUC(0-t) worked out at 1060 ng·h/mL. Moreover, in data set [1] (male, ICR, mouse, plasma, po, 5 mg/kg, PO 5 mg/kg, ICR mice, individual animal, read-out: Cmax), the Cmax is 409 ng/mL. In addition, the AUC(0-t) in data set [1] (male, ICR, mouse, plasma, po, 5 mg/kg, oral intragastric administration 5 mg/kg, read-out: AUC0-t) was 1130 ng·h/mL. Also, in data set [1] (male, ICR, mouse, plasma, oral intragastric administration 5 mg/kg, read-out: bioavailability), the bioavailability stood at 78.8%.
